Laboratory results: the supplement of paper PMC10307832

Columns and labels:
Assay in all cases: relative viability (nuclei count vs DMSO), 5 days (fraction); higher = more cells survive
[1] = compound: CNC(=O)c1ccccc1Sc1ccc2c(/C=C/c3ccccn3)n[nH]c2c1 [Axitinib] + Nc1ncn([C@H]2C[C@H](O)[C@@H](CO)O2)c(=O)n1 [Decitabine] (partner 2 µM)
Summary of the method: (§1)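 Medians of duplicate plates are given as relative viability. That measure is the nuclei count in treated wells divided by the count in vehicle wells. Counts were taken on 4× images of lung cancer cell lines in 1536-well plates, 5 days after pin-tool dosing the day after seeding with one drug alone or a fixed anchor-drug dose plus five library-drug doses (not always all listed) in √10 steps.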

[2] = compound: Nc1nc(Nc2ccc3c(c2)CC[C@@H](N2CCCC2)CC3)nn1-c1cc2c(nn1)-c1ccccc1CCC2 [Bemcentinib] + CC(=O)c1c(C)c2cnc(Nc3ccc(N4CCNCC4)cn3)nc2n(C2CCCC2)c1=O [Palbociclib] (partner 0.5 µM)
Summary of the method: as §1

[3] = compound: CNC(=O)c1ccccc1Sc1ccc2c(/C=C/c3ccccn3)n[nH]c2c1 [Axitinib] + COc1cc2c(Oc3ccc(NC(=O)C4(C(=O)Nc5ccc(F)cc5)CC4)cc3F)ccnc2cc1OCCCN1CCOCC1 [Foretinib] (partner 0.25 µM)
Summary of the method: as §1

[4] = compound: CC1=CC=C(C=C1)C(=O)CN2C3=C(CCCC3)SC2=N [Pifithrin_alpha] + CC(=O)c1c(C)c2cnc(Nc3ccc(N4CCNCC4)cn3)nc2n(C2CCCC2)c1=O [Palbociclib] (partner 0.5 µM)
Summary of the method: as §1

## NCI-H650
[1]; first compound 0.005 µM
  relative viability: 0.287
[1]; first compound 0.01581 µM
  relative viability: 0.335
[1]; first compound 0.05 µM
  relative viability: 0.289
[1]; first compound 0.1581 µM
  relative viability: 0.31
[1]; first compound 0.5 µM
  relative viability: 0.306
[2]; first compound 0.04 µM
  relative viability: 0.337
[2]; first compound 0.1265 µM
  relative viability: 0.298
[2]; first compound 0.4 µM
  relative viability: 0.338
[2]; first compound 1.265 µM
  relative viability: 0.333
[2]; first compound 4 µM
  relative viability: 0.298
[3]; first compound 0.005 µM
  relative viability: 1.08
[3]; first compound 0.01581 µM
  relative viability: 1.12
[3]; first compound 0.05 µM
  relative viability: 0.953
[3]; first compound 0.1581 µM
  relative viability: 0.984
[3]; first compound 0.5 µM
  relative viability: 1.07
[4]; first compound 3.162 µM
  relative viability: 0.371
[4]; first compound 10 µM
  relative viability: 0.328
[4]; first compound 31.62 µM
  relative viability: 0.204
[4]; first compound 100 µM
  relative viability: 0.327
